US20090131329A1, “Treatment for allograft rejection” (priority 2007, published 2009)

How the values were obtained:
[1] = system: neutrophils in the lung allograft; assay: Number of neutrophils infiltrated into lung grafts; format: in vivo, rat; settings: day 7
Procedure: Transplant Model. Rat left-lung transplantation was performed in a RT1 (MHC) incompatible donor-recipient combination from a BN donor into a F344 recipient. Complete graft rejection in this severely mismatched combination would be expected histologically and radiographically on day 7 postoperatively. The orthotopic left-lung transplantation procedure used in this study was a modification of the ‘cuff’ technique for vascular anastomosis (Mizuta et al., 1989). In brief, the lung grafts were flushed and immersed in ice-cold normal saline solution before implantation. Cuffs with internal diameters of 1.65 mm and 2.20 mm for pulmonary arterial and venous anastomosis, respectively, were used. […] Acute rejection was evaluated histologically and assigned a rejection score (RS) based on the clinical international working formulation: IWF grade 0, no significant abnormality; grade 1, scattered infrequent perivascular mononuclear infiltration; grade 2, frequent perivascular mononuclear infiltration; grade 3, extension of mononuclear infiltration into alveolar septum/space; and grade 4, diffuse perivascular, interstitial, and air space infiltration of mononuclear cells. The number of neutrophils was counted in a blinded fashion in 10 random fields per slide at ×1000 magnification. […] The data were expressed as mean±standard deviation. […]

[2] = system: lung allograft rejection (BN donor into F344 recipient); assay: Radiographic evaluation (aeration score) of transplanted lungs; format: in vivo, rat; settings: for aeration score (AS) of representative chest radiograph: day 7
Procedure: Methods. Orthotopic left lung allotransplantation was performed from Brown Norway (donor) to Fisher 344 (recipient) rats. The role of activated neutrophils in the development of allograft rejection is believed to be biphasic. Therefore, specific CXC receptor inhibition was used with antileukinate in two dosing regimens. Recipients were allocated into 4 groups: A (early administration: n=6) received two doses of antileukinate (a hexapeptide), 10.0 mg/kg intramuscularly 24 hours before and immediately after transplantation, B (continuous administration: n=8) animals continuously received antileukinate intraperitoneally (10.0 mg/kg/day) for 7 days after surgery. Experimental groups A or B were compared with their individual control that received saline alone (Cont-A and Cont-B). The progression of rejection was assessed radiographically. Each animal was sacrificed on day 7 for histologic evaluation of allograft rejection based on pathologic rejection grade. Transplant Model. Rat left-lung transplantation was performed in a RT1 (MHC) incompatible donor-recipient combination from a BN donor into a F344 recipient. Complete graft rejection in this severely mismatched combination would be expected histologically and radiographically on day 7 postoperatively. The orthotopic left-lung transplantation procedure used in this study was a modification of the ‘cuff’ technique for vascular anastomosis (Mizuta et al., 1989). In brief, the lung grafts were flushed and immersed in ice-cold normal saline solution before implantation. Cuffs with internal diameters of 1.65 mm and 2.20 mm for pulmonary arterial and venous anastomosis, respectively, were used. The left main bronchus was anastomosed using 8-0 prolene running sutures. In rats, radiographic assessment of a left-lung transplantation graft can be obscured by the right lung. Therefore, a postcaval lobectomy on the recipient's right lung was performed immediately after implantation so as to facilitate radiographic assessment of the left-lung allograft. […] Experimental groups. Recipient animals were divided into 4 groups (Table 1). Animals from group A (early administration; n=6) received 0.5 ml of phosphate-buffered saline (PBS) solution containing a 10.0 mg/kg concentration of antileukinate intramuscularly 24 hours before (day −1) and immediately after transplantation (day 0). The control group against group A (Cont-A) received 0.5 ml of PBS in a similar fashion. Allograft recipients from group B (continuous administration; n=8) were given continuous antileukinate administration intraperitoneally for 7 days after transplantation, starting immediately after surgery using a micro-osmotic pump which was implanted into the peritoneal cavity two hours before lung transplantation. Antileukinate was released into the recipient's peritoneal cavity continuously at a dose of 10.0 mg/kg/day from days 0 to 7. Animals from Cont-B served as the control group against group B receiving the same amount of PBS without antileukinate in the same manner. Implantation of micro-osmotic pumps for groups B and Cont-B. Micro-osmotic pumps (model 2001; Alzet Corp., distributed by Charles River Laboratories, Sulzfeld, Germany) were used for intraperitoneal delivery of antileukinate. […] Transplanted lungs were serially assessed every other day by chest roentgenogram under spontaneous ventilation with halothane for sedation. […] Briefly, it was evaluated and graded 0 for an opaque lung, and up to 6 for a normal-appearing lung. […]

[3] = system: lung allograft (BN donor into F344 recipient); assay: Macroscopic findings of the allograft on day 7; format: in vivo, rat; settings: controls: complete consolidation without aeration
Procedure: Transplant Model. Rat left-lung transplantation was performed in a RT1 (MHC) incompatible donor-recipient combination from a BN donor into a F344 recipient. Complete graft rejection in this severely mismatched combination would be expected histologically and radiographically on day 7 postoperatively. The orthotopic left-lung transplantation procedure used in this study was a modification of the ‘cuff’ technique for vascular anastomosis (Mizuta et al., 1989). In brief, the lung grafts were flushed and immersed in ice-cold normal saline solution before implantation. Cuffs with internal diameters of 1.65 mm and 2.20 mm for pulmonary arterial and venous anastomosis, respectively, were used. The left main bronchus was anastomosed using 8-0 prolene running sutures. In rats, radiographic assessment of a left-lung transplantation graft can be obscured by the right lung. Therefore, a postcaval lobectomy on the recipient's right lung was performed immediately after implantation so as to facilitate radiographic assessment of the left-lung allograft. […] Experimental groups. Recipient animals were divided into 4 groups (Table 1). Animals from group A (early administration; n=6) received 0.5 ml of phosphate-buffered saline (PBS) solution containing a 10.0 mg/kg concentration of antileukinate intramuscularly 24 hours before (day −1) and immediately after transplantation (day 0). […]

[4] = system: lung allograft rejection (BN donor into F344 recipient); assay: Histological evaluation of acute rejection (IWF rejection score) of rat lung allografts on day 7; format: in vivo
Procedure: Methods. Orthotopic left lung allotransplantation was performed from Brown Norway (donor) to Fisher 344 (recipient) rats. The role of activated neutrophils in the development of allograft rejection is believed to be biphasic. Therefore, specific CXC receptor inhibition was used with antileukinate in two dosing regimens. Recipients were allocated into 4 groups: A (early administration: n=6) received two doses of antileukinate (a hexapeptide), 10.0 mg/kg intramuscularly 24 hours before and immediately after transplantation, B (continuous administration: n=8) animals continuously received antileukinate intraperitoneally (10.0 mg/kg/day) for 7 days after surgery. Experimental groups A or B were compared with their individual control that received saline alone (Cont-A and Cont-B). The progression of rejection was assessed radiographically. Each animal was sacrificed on day 7 for histologic evaluation of allograft rejection based on pathologic rejection grade. Transplant Model. Rat left-lung transplantation was performed in a RT1 (MHC) incompatible donor-recipient combination from a BN donor into a F344 recipient. Complete graft rejection in this severely mismatched combination would be expected histologically and radiographically on day 7 postoperatively. […]

[5] = group B (continuous administration)

Ac-RRWWCR-NH2 [antileukinate]
neutrophil count in the graft ([1]; group A: 10.0 mg/kg im day -1 and day 0, Cont-A 55.7±10.0, p=0.093): 34.8±28.7 /10HPFs | neutrophil count in the graft ([1]; group B: continuous ip 10.0 mg/kg/day, Cont-B 47.9±18.4, p=0.046): 32.1±9.6 /10 HPFs | aeration score versus control at each time point ([2]; group A (early administration) versus Cont-A): No significant differences | aeration score (AS) of representative chest radiograph ([2]; group A (early administration)): 6 | aeration score versus control at each time point ([2]; group B (continuous administration) versus Cont-B): No significant differences | aeration score (AS) of representative chest radiograph [2, 5]: 5 | aeration score (AS) on day 7, mean±standard deviation ([2]; group B: continuous ip 10.0 mg/kg/day, Cont-B 1.6±1.3, p=0.16, score 0=opaque to 6=normal-appearing lung): 2.6±2.1 | macroscopic finding of the allograft ([3]; group A (early administration)): macroscopically adequate ventilation | macroscopic finding of the allograft [3, 5]: macroscopically adequate ventilation | rejection score (RS) of representative allograft ([4]; group B (continuous administration), day 7, representative histology): 1 | histologic rejection score (IWF), mean±standard deviation ([4]; group B: continuous ip 10.0 mg/kg/day days 0 to 7, n=8, day 7, Cont-B 3.3±0.5, p=0.018, scale 0-4): 2.1±1.0
